Our source for the T/C values is PubChem BioAssay AID276 (DTP/NCI, 2004).

Values joined by “and” are separate entries in the source; they are usually repeats but may differ in a detail not shown here. Identical values can stand only once. Toxic doses and inconclusive results are not listed.

The experiment concerns B6C3F1 mice, Lewis lung carcinoma iv, survival T/C. The experiment can be described thus: NCI In Vivo Anticancer Drug Screen. Data for tumor model Lewis Lung Carcinoma (intravenous) in B6C3F1 mice. The settings on record: endpoint: median survival time, schedule: Q01DX009 (ip), higher = longer survival. The method in brief: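 Mice carrying transplanted tumors received test compound; survival in the treated group was divided by that of the vehicle-treated control group to give the T/C value.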

[1] abbreviates: dose: 12.5 mg/kg/injection, vehicle: saline with Tween-80.
Setting [2] is: dose: 25.0 mg/kg/injection, vehicle: saline with Tween-80.
The mark [3] stands for this setting: dose: 50.0 mg/kg/injection, vehicle: saline with Tween-80.
[4] abbreviates: dose: 100.0 mg/kg/injection, vehicle: saline with Tween-80.
Setting [5] is: dose: 200.0 mg/kg/injection, vehicle: saline with Tween-80.
[6] abbreviates: dose: 400.0 mg/kg/injection, vehicle: saline with Tween-80.
Setting [7] is: dose: 12.5 mg/kg/injection, vehicle: distilled water + Tween-80.
Where [8] appears, read: dose: 25.0 mg/kg/injection, vehicle: distilled water + Tween-80.
The mark [9] stands for this setting: dose: 50.0 mg/kg/injection, vehicle: distilled water + Tween-80.
[10] abbreviates: dose: 12.5 mg/kg/injection, vehicle: Klucel (hydroxypropylcellulose) (HPC).
The mark [11] stands for this setting: dose: 25.0 mg/kg/injection, vehicle: saline.
Setting [12] is: dose: 50.0 mg/kg/injection, vehicle: saline.
[13] abbreviates: dose: 200.0 mg/kg/injection, vehicle: saline.
Setting [14] is: dose: 12.5 mg/kg/injection, vehicle: water.
The mark [15] stands for this setting: dose: 25.0 mg/kg/injection, vehicle: water.
Where [16] appears, read: dose: 6.25 mg/kg/injection, vehicle: water.
[17] abbreviates: dose: 6.25 mg/kg/injection, vehicle: saline.
[18] abbreviates: dose: 12.5 mg/kg/injection, vehicle: saline.

With `COc1ccc(C[C@H](N)C(=O)NC2C(CO)OC(n3cnc4c(N(C)C)ncnc43)C2O)cc1` (stereo not given in full), the T/C is, setting by setting: (dose: 5.0 mg/kg/injection, vehicle: saline) 99 % of control; (dose: 10.0 mg/kg/injection, vehicle: saline) 104 % of control; (dose: 20.0 mg/kg/injection, vehicle: saline) 114 % of control; (dose: 40.0 mg/kg/injection, vehicle: saline) 109 % of control; (dose: 80.0 mg/kg/injection, vehicle: saline) 114 % of control.

Consider `CC1=C[S+](c2ccccc2)c2cccc3cc4ccccc4c1c23` (stereo not given), for which the T/C is 106 % of control (dose: 0.12 mg/kg/injection, vehicle: saline with Tween-80); 113 % of control (dose: 0.25 mg/kg/injection, vehicle: saline with Tween-80); 95 % of control (dose: 0.5 mg/kg/injection, vehicle: saline with Tween-80); 100 % of control (dose: 1.0 mg/kg/injection, vehicle: saline with Tween-80); 106 % of control (dose: 2.0 mg/kg/injection, vehicle: saline with Tween-80); 101 % of control (dose: 4.0 mg/kg/injection, vehicle: saline with Tween-80).

In the case of `COC1/C=C/O[C@@]2(C)Oc3c(C)c(O)c4c(O)c(cc(O)c4c3C2=O)NC(=O)/C(C)=C\C=C\[C@H](C)C(O)[C@@H](C)[C@@H](O)[C@@H](C)[C@H](OC(C)=O)[C@@H]1C` (stereo not given in full), the T/C under setting [1] is 109 % of control; the T/C under setting [2] was 106 % of control; the T/C under setting [3] was 105 % of control; the T/C under setting [4] was 101 % of control; the T/C under setting [5] was 101 % of control; the T/C under setting [6] was 100 % of control.

Regarding `CC(=O)Oc1c[nH]c(=O)[nH]c1=O`, the T/C was 102 % of control under setting [7]; 95 % of control under setting [8]; 92 % of control under setting [9]; 100 % of control (dose: 100.0 mg/kg/injection, vehicle: distilled water + Tween-80); 95 % of control (dose: 200.0 mg/kg/injection, vehicle: distilled water + Tween-80); 94 % of control (dose: 400.0 mg/kg/injection, vehicle: distilled water + Tween-80).

Regarding `CN(C)/N=N/c1nc[nH]c1C(N)=O`, under setting [10], the T/C was 229 % of control.

As for `Nc1ncnc2c1cnn2Cc1ccc(Cl)cc1`, the T/C reads like this: under setting [11], 94 % of control; under setting [12], 106 % of control; (dose: 100.0 mg/kg/injection, vehicle: saline) 111 % of control; under setting [13], 93 % of control.

Turning to `O=C(O)C1CC(c2ccccc2)=NN1c1ccccc1` (stereo not given), the T/C runs as follows: under setting [14], 102 % of control; under setting [15], 97 % of control; (dose: 50.0 mg/kg/injection, vehicle: water) 102 % of control; (dose: 100.0 mg/kg/injection, vehicle: water) 112 % of control; (dose: 200.0 mg/kg/injection, vehicle: water) 106 % of control.

Turning to `COc1cccc2c1C(=O)c1c(O)c3c(c(O)c1C2=O)C[C@@](O)(/C(C)=N\O)C[C@@H]3OC1CC(N)C(O)C(C)O1` (stereo not given in full), the T/C is, setting by setting: (dose: 3.12 mg/kg/injection, vehicle: water) 90 % of control; under setting [16], 86 % of control; under setting [14], 90 % of control.

Take `CCCCCCCCCCCCCCCCCC(=O)Nc1ccn(C2OC(CO)C(O)C2O)c(=O)n1` (stereo not given): the T/C reads like this: (dose: 12.5 mg/kg/injection, vehicle: suspension in saline) 103 % of control and 109 % of control; (dose: 25.0 mg/kg/injection, vehicle: suspension in saline) 119 % of control; (dose: 50.0 mg/kg/injection, vehicle: suspension in saline) 160 % of control and 164 % of control.

Regarding `Nc1ncn(C2OC(CO)C(O)C2O)c(=O)n1` (stereo not given), the T/C reads like this: under setting [17], 111 % of control; under setting [18], 120 % of control; under setting [11], 115 % of control; under setting [12], 123 % of control; under setting [13], 170 % of control; (dose: 400.0 mg/kg/injection, vehicle: saline) 161 % of control.

Consider `C[C@]12CC[C@H](O)CC1=CC[C@@H]1[C@@H]2CC[C@]2(C)C(=O)CC[C@@H]12`, for which the T/C under setting [2] is 105 % of control; the T/C under setting [3] was 100 % of control; the T/C under setting [4] is 101 % of control; the T/C under setting [5] is 94 % of control; the T/C under setting [6] was 99 % of control.

With `Nc1ncnc2c1nnn2C1OC(CO)C(O)C1O` (stereo not given), the T/C under setting [10] is 110 % of control; the T/C (dose: 25.0 mg/kg/injection, vehicle: Klucel (hydroxypropylcellulose) (HPC)) was 103 % of control; the T/C (dose: 50.0 mg/kg/injection, vehicle: Klucel (hydroxypropylcellulose) (HPC)) is 105 % of control.

For `CNC(=O)OCc1c(COC(=O)NC)c(-c2ccc(Cl)c(Cl)c2)n2c1Cc1ccccc1C2`, the T/C reads like this: under setting [7], 102 % of control; under setting [8], 114 % of control; under setting [9], 101 % of control and 105 % of control.

As to `O=C(Nc1ccccc1C(=O)O)c1cc([N+](=O)[O-])cc([N+](=O)[O-])c1`, the T/C is, setting by setting: under setting [1], 96 % of control; under setting [2], 91 % of control; under setting [3], 102 % of control; under setting [4], 102 % of control; under setting [5], 95 % of control.

For `C/C(=N\NC(=S)N1CCN(c2ccccn2)CC1)c1ccccn1`, the T/C by setting is: under setting [16], 109 % of control; under setting [14], 104 % of control; under setting [15], 113 % of control.

On to `C=C1C(=O)OC2CC(C)C3C4OC4C(O)C3(C)C(O)C12` (stereo not given), for which the T/C (dose: 5.62 mg/kg/injection, vehicle: saline) was 100 % of control; the T/C (dose: 11.25 mg/kg/injection, vehicle: saline) was 102 % of control; the T/C (dose: 22.5 mg/kg/injection, vehicle: saline) is 100 % of control; the T/C (dose: 45.0 mg/kg/injection, vehicle: saline) was 108 % of control; the T/C (dose: 90.0 mg/kg/injection, vehicle: saline) was 105 % of control.

Take `CCN(CC)CC[n+]1ccc2c(C)c3[nH]c4ccc(O)cc4c3c(C)c2c1`: the T/C was 95 % of control (dose: 1.56 mg/kg/injection, vehicle: saline); 106 % of control (dose: 1.56 mg/kg/injection, vehicle: suspension in saline); 100 % of control (dose: 3.12 mg/kg/injection, vehicle: saline); 100 % of control (dose: 3.12 mg/kg/injection, vehicle: suspension in saline); 106 % of control under setting [17]; 116 % of control (dose: 6.25 mg/kg/injection, vehicle: suspension in saline). In addition, the T/C under setting [18] was 98 % of control.

With `CCc1ncnc2cc(OCC3CO3)c(OC)cc12` (stereo not given), the T/C is 98 % of control (dose: 3.13 mg/kg/injection, vehicle: saline); 100 % of control and 106 % of control under setting [17]; 102 % of control and 104 % of control under setting [18]; 117 % of control and 118 % of control under setting [11].
